By MIC is commonly meant the lowest concentration that inhibits growth of the organism. A lower MIC goes with inhibition by little substance.

This assay deals with Mycobacterium intracellulare. In words: Antimycobacterial activity against Mycobacterium intracellular ATCC 23068 after 48 hrs. It counts as functional. The following applies: for MIC: ATCC 23068, 48 h.

SMILES strings stand for the structures. Values after ≈ are worked out from the molar mass of the structure shown. Active and inactive are the calls of the source. The calls are words filed in the database; no cut-off is given here.

With `CC(C)=C[C@H]1C[C@](C)(O)[C@@H]2[C@H]3CC[C@@H]4[C@@]5(C)CC[C@H](O[C@@H]6OC[C@H](O)[C@H](O[C@@H]7O[C@H](CO)[C@@H](O)[C@H](O)[C@H]7O)[C@H]6O[C@@H]6O[C@@H](CO)[C@H](O)[C@H]6O)C(C)(C)[C@@H]5CC[C@@]4(C)[C@@]34CO[C@@]2(C4)O1`, the outcome was inactive.

On to `CO[C@H]1/C=C/O[C@@]2(C)Oc3c(C)c(O)c4c(O)c(c(/C=N/N5CCN(C)CC5)c(O)c4c3C2=O)NC(=O)/C(C)=C\C=C\[C@H](C)[C@H](O)[C@@H](C)[C@@H](O)[C@@H](C)[C@H](OC(C)=O)[C@@H]1C` [RIFAMPIN], for which the MIC was 0.3 µg/mL (≈ 0.365 µM).

`CC(C)=C[C@H]1C[C@](C)(O)[C@@H]2[C@H]3CC[C@@H]4[C@@]5(C)CC[C@H](O[C@@H]6OC[C@H](O)[C@H](O[C@@H]7O[C@H](CO)[C@@H](O)[C@H](O)[C@H]7OC(=O)/C=C/c7ccc(O)cc7)[C@H]6O[C@@H]6O[C@@H](CO)[C@H](O)[C@H]6O)C(C)(C)[C@@H]5CC[C@@]4(C)[C@@]34CO[C@@]2(C4)O1` displayed an MIC of 50 µg/mL (≈ 47.8 µM).

In turn, `CC(C)=C[C@H]1C[C@](C)(O)[C@@H]2[C@H]3CC[C@@H]4[C@@]5(C)CC[C@H](O[C@@H]6OC[C@H](O)[C@H](O[C@@H]7O[C@H](CO)[C@@H](O)[C@H](OC(=O)/C=C/c8ccc(O)cc8)[C@H]7O)[C@H]6O[C@@H]6O[C@@H](CO)[C@H](O)[C@H]6O)C(C)(C)[C@@H]5CC[C@@]4(C)[C@@]34CO[C@@]2(C4)O1` gave an MIC of 10 µg/mL (≈ 9.57 µM).

For the origin of these results see ChEMBL document CHEMBL1144118, “New antimycobacterial saponin from Colubrina retusa” (1999).
